From US20230031406A1, “COMPOUNDS AND COMPOSITIONS FOR TREATING CONDITIONS ASSOCIATED WITH NLRP ACTIVITY” (Novartis AG, priority 2018, published 2023) come the findings set out here.

Each structure is given as a SMILES string. Like-named read-outs stand apart in the source and are kept apart here.

The experiment has as its system PMA-differentiated THP-1 cells. The experiment can be described thus: IL-1β production in PMA-differentiated THP-1 cells stimulated with gramicidin (hTHP-1 assay containing 2% fetal bovine serum; Procedures 1 and 2). Format: cell-based, human. The method, boiled down:
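IL-1β release from PMA-differentiated THP-1 macrophage-like cells was triggered by 5 μM gramicidin for 2 h after 1 h compound exposure, then measured by HTRF.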

Setting [1] is: Table B2, 2% fetal bovine serum, class symbols, read-out: hTHP-1 IC50.
[2] abbreviates: Homo sapiens, THP-1, Table B2, 2% fetal bovine serum, class symbols, read-out: hTHP-1 IC50.
The mark [3] stands for this setting: Table B1, 2% fetal bovine serum, class symbols, read-out: Average IC50 of compounds in hTHP-1 assay: hTHP-1 IC50.
[4] abbreviates: Homo sapiens, THP-1, Table B3, hTHP-1 assay, 2% fetal bovine serum, class symbols, read-out: IC50.
The mark [5] stands for this setting: Homo sapiens, THP-1, Table B1, 2% fetal bovine serum, class symbols, read-out: Average IC50 of compounds in hTHP-1 assay: hTHP-1 IC50.
[6] abbreviates: Table B4, 2% fetal bovine serum, class symbols, read-out: hTHP-1 IC50.
[7] abbreviates: Homo sapiens, THP-1, Table B4, 2% fetal bovine serum, class symbols, read-out: hTHP-1 IC50.

With `CCC1CCc2c1nc1c(c2NC(=O)N=S(N)(=O)c2cnc(C(C)(C)O)s2)CCC1` (stereo not drawn) [Compound 662, N′-((3-ethyl-1,2,3,5,6,7-hexahydrodicyclopenta[b,e]pyridin-8-yl)carbamoyl)-2-(2-hydroxypropan-2-yl)thiazole-5-sulfonimidamide], the half-inhibitory concentration (IC50) (commonly the midpoint of a concentration-inhibition curve) under setting [1] lay in the range of 5000 to 30000 nM.

For `CC(C)(O)c1cc(F)c(S(N)(=O)=NC(=O)Nc2c3c(nc(C4CC4)c2C2CC2)CCC3)s1` (single isomer, unassigned) [Example 698, (S) or (R)-N′-((2,3-dicyclopropyl-6,7-dihydro-5H-cyclopenta[b]pyridin-4-yl)carbamoyl)-3-fluoro-5-(2-hydroxypropan-2-yl) thiophene-2-sulfonimidamide], the concentration for half-maximal inhibition (IC50) (Table B3, hTHP-1 assay, 2% fetal bovine serum, class symbols, read-out: IC50) was 1000 to 5000 nM.

`CC(C)(O)c1cnc(S(N)(=O)=NC(=O)Nc2c3c(nc4c2CCC4(C)C)CCC3)s1` (stereo not drawn) [Compound 686, N′-((3,3-dimethyl-1,2,3,5,6,7-hexahydrodicyclopenta[b,e]pyridin-8-yl)carbamoyl)-5-(2-hydroxypropan-2-yl)thiazole-2-sulfonimidamide]: the half-inhibitory concentration (IC50) under setting [2] is 200 to 1000 nM.

With `CC(C)(O)c1nc(CO)c(S(N)(=O)=NC(=O)Nc2c3c(nc4c2CCC4)CCC3)s1` (single isomer, unassigned) [Compound 150b, (R) or (S)-N′-((1,2,3,5,6,7-hexahydrodicyclo-penta[b,e]pyridin-8-yl)carbamoyl)-4-(hydroxymethyl)-2-(2-hydroxypropan-2-l)thiazole-5-sulfonimidamide], under setting [3], the IC50 was 200 to 1000 nM.

In the case of `CCn1cc(F)c(S(N)(=O)=NC(=O)Nc2c(C)c(C(F)(F)F)nc3c2CC(C)C3)n1` (single isomer, unassigned) [Compound 1101a], the half-inhibitory concentration (IC50) (Homo sapiens, THP-1, read-out: hTHP-1 IC50 in 2% FBS, hTHP-1 assay containing 2% fetal bovine serum, Table B5) was in the range of 40 to 200 nM.

Consider `CC(C)(O)c1csc(S(N)(=O)=NC(=O)Nc2c3c(nc(C(F)(F)F)c2C2CC2)CCC3)c1` (stereo not drawn) [Example 609, N′-((3-cyclopropyl-2-(trifluoromethyl)-6,7-dihydro-5H-cyclopenta[b]pyridin-4-yl)carbamoyl)-4-(2-hydroxypropan-2-yl)thiophene-2-sulfonimidamide], for which the IC50 under setting [4] was 200 to 1000 nM.

For the compound `CC(C)(O)c1cccc(S(N)(=O)=NC(=O)Nc2c3c(nc4c2CCC4)CCC3)c1` (single isomer, unassigned) [Compound 625b, (R) or (S)-N′-((1,2,3,5,6,7-hexahydrodicyclopenta [b,e]pyridin-8-yl)carbamoyl)-3-(2-hydroxypropan-2-yl)benzene-sulfonimidamide], the IC50 under setting [2] fell in the range of 1000 to 5000 nM.

With `CC1CCc2c1nc1c(c2NC(=O)N=S(N)(=O)c2cnn(C(C)C)c2)CCC1` (single isomer, unassigned) [Compound 171d, (S, S) and (S, R) or (R, S) and (R, R)-1-Isopropyl-N′-((3-methyl-1,2,3,5,6,7-hexahydrodicyclopenta [b,e]pyridin-8-yl)carbamoyl)-1H-pyrazole-4-sulfonimidamide], the IC50 (Table B2, 2% fetal bovine serum, numeric bounds, read-out: hTHP-1 IC50) was over 30000 nM.

With `Cc1nc(C(C)(C)O)ccc1S(N)(=O)=NC(=O)Nc1c2c(nc3c1CCC3)CCC2` (stereo not drawn) [Compound 157, N′-((1,2,3,5,6,7-hexahydrodicyclopenta[b,e]pyridin-8-yl)carbamoyl)-6-(2-hydroxypropan-2-yl)-2-methylpyridine-3-sulfonimidamide], the half-maximal inhibitory concentration (IC50) under setting [5] was 5000 to 30000 nM.

Consider `CC1CCc2c1nc1c(c2NC(=O)N=S(N)(=O)c2sc(C(C)(C)O)cc2F)CCC1` (stereo not drawn) [Compound 103, 3-fluoro-5-(2-hydroxypropan-2-yl)-N′-((3-methyl-1,2,3,5,6,7-hexahydrodicyclopenta[b,e]pyridin-8-yl)carbamoyl)thiophene-2-sulfonimidamide], for which the IC50 under setting [3] lay in the range of 40 to 200 nM.

For the compound `CC(C)(O)c1sc(S(N)(=O)=NC(=O)Nc2c3c(nc4c2CCC4)CCC3)cc1F` (single isomer, unassigned) [Compound 678b, (S) or (R)-4-Fluoro-N′-((1,2,3,5,6,7-hexahydrodicyclopenta [b,e]pyridin-8-yl)carbamoyl)-5-(2-hydroxypropan-2-yl)thiophene-2-sulfonimidamide], for the setting “Homo sapiens, THP-1, Table B2, 2% fetal bovine serum, numeric bounds, read-out: hTHP-1 IC50”, the IC50 was over 30000 nM.

In the case of `CC1CCc2c1nc1c(c2NC(=O)N=S(N)(=O)c2ccn(C(F)F)n2)CCC1` (single isomer, unassigned) [Compound 184c, (R,S) or (R,R)-1-(difluoro-methyl)-N′-((3-methyl-1,2,3,5,6,7-hexahydro-dicyclopenta[b,e]pyridin-8-yl)carbamoyl)-1H-pyrazole-3-sulfonimidamide], the half-inhibitory concentration (IC50) under setting [3] lay in the range of 5000 to 30000 nM.

`CC1CCc2c1nc1c(c2NC(=O)N=S(N)(=O)c2ccn(C(C)C)n2)CCC1` (single isomer, unassigned) [Compound 129bb, (S,R) or (S,S)-1-isopropyl-N′-((3-methyl-1,2,3,5,6,7-hexa-hydrodicyclo-penta[b,e]pyridin-8-yl)carbamoyl)-1H-pyrazole-3-sulfonimidamide]: the IC50 under setting [3] lay within 5000 to 30000 nM.

As for `CC1CCc2c1nc1c(c2NC(=O)N=S(N)(=O)c2cc(C(C)(C)O)cs2)CCC1` (single isomer, unassigned) [Compound 141b, (R,R/S) or (S,R/S)-4-(2-hydroxypropan-2-yl)-N′-((3-methyl-1,2,3,5,6,7-hexahydro-dicyclopenta[b,e]pyridin-8-yl)carbamoyl)thiophene-2-sulfonimidamide], the IC50 under setting [3] fell in the range of 40 to 200 nM.

Take `CC(C)(O)c1csc(S(N)(=O)=NC(=O)Nc2c3c(nc4c2CCC4(C)C)CCC3)c1` (single isomer, unassigned) [Compound 127b, (R) or (S)-N′-((3,3-dimethyl-1,2,3,5,6,7-hexahydro-dicyclopenta[b,e]pyridin-8-yl)carbamoyl)-4-(2-hydroxypropan-2-yl)thio-phene-2-sulfonimidamide]: the IC50 under setting [3] is 40 to 200 nM.

In the case of `CC(C)n1nc(S(N)(=O)=NC(=O)Nc2c3c(nc4c2CCC42CC2)CCC3)cc1CO` (single isomer, unassigned) [Example 641, (R) or (S)-5-(hydroxymethyl)-1-isopropyl-N′-((1′,5′,6′,7′-tetrahydro-2′H-spiro[cyclopropane-1,3′-dicyclopenta[b,e]pyridin]-8′-yl)carbamoyl)-1H-pyrazole-3-sulfonimidamide], under setting [4], the IC50 was in the range of 1000 to 5000 nM.

For `CN(C)Cc1ccc(S(N)(=O)=NC(=O)Nc2c3c(nc4c2CCC4)CCC3)cc1` (single isomer, unassigned) [Compound 130b, (R) or (S)-4-((dimethylamino)methyl)-N′-((1,2,3,5,6,7-hexahydro-dicyclopenta[b,e]pyridin-8-yl)carbamoyl)benzene-sulfonamidamide], the half-maximal inhibitory concentration (IC50) under setting [5] fell in the range of 1000 to 5000 nM.

For the compound `CCn1cc(F)c(S(N)(=O)=NC(=O)Nc2c3c(nc(C(F)(F)F)c2-c2ccccc2F)CCC3)n1` (single isomer, unassigned) [Example 780, (S) or (R)-1-ethyl-4-fluoro-N′-((3-(2-fluorophenyl)-2-(trifluoromethyl)-6,7-dihydro-5H-cyclopenta[b]pyridin-4-yl)carbamoyl)-1H-pyrazole-3-sulfonimidamide], under setting [6], the concentration for half-maximal inhibition (IC50) lay within 200 to 1000 nM.

`CC(C)(O)c1cc(Cl)c(S(N)(=O)=NC(=O)Nc2c3c(nc4c2CCC4)CCC3)s1` (single isomer, unassigned) [Compound 691b, (R) or (S)-3-Chloro-N′-((1,2,3,5,6,7-hexahydrodicyclopenta [b,e]pyridin-8-yl)carbamoyl)-5-(2-hydroxypropan-2-yl)thiophene-2-sulfonimidamide]: under setting [1], the half-inhibitory concentration (IC50) was 1000 to 5000 nM.

Turning to `CCn1cc(F)c(S(N)(=O)=NC(=O)Nc2c3c(nc(C(F)(F)F)c2-c2cccc(F)c2)CCC3)n1` (stereo not drawn) [Example 747, 1-Ethyl-4-fluoro-N′-((3-(3-fluorophenyl)-2-(trifluoromethyl)-6,7-dihydro-5H-cyclopenta[b]pyridin-4-yl)cathamoyl)-1H-pyrazole-3-sulfonimidamide], the IC50 under setting [6] was 8 to 40 nM.

For `Cc1cc(C(C)(C)O)sc1S(N)(=O)=NC(=O)Nc1c2c(nc3c1CCC3)CCC2` (stereo not drawn) [Compound 695, N-((1,2,3,5,6,7-hexahydrodicyclopenta[b,e]pyridin-8-yl)carbamoyl)-5-(2-hydroxypropan-2-yl)-3-methylthiophene-2-sulfonimidamide], the IC50 under setting [2] fell in the range of 5000 to 30000 nM.

For `CCn1cc(F)c(S(N)(=O)=NC(=O)Nc2c3c(nc(C(F)(F)F)c2C2CC2)CCC3)n1` (stereo not drawn) [Example 744, N′-((3-cyclopropyl-2-(trifluoromethyl)-6,7-dihydro-5H-cyclopenta[b]pyridin-4-yl)carbamoyl)-1-ethyl-4-fluoro-1H-pyrazole-3-sulfonimidamide], under setting [7], the IC50 lay in the range of 40 to 200 nM.

As to `C[C@@H]1CCc2c1nc1c(c2NC(=O)N=S(N)(=O)c2cnc([C@](C)(O)CO)s2)CCC1` (single isomer, unassigned) [Example 731], the half-maximal inhibitory concentration (IC50) under setting [7] lay in the range of 40 to 200 nM.

For the compound `NS(=O)(=NC(=O)Nc1c2c(nc(C(F)(F)F)c1-c1ccccc1)CCC2)c1nn(C(F)F)cc1F` (single isomer, unassigned) [Example 765, (R) or (S)-1-(difluoromethyl)-4-fluoro-N′-((3-phenyl-2-(trifluoromethyl)-6,7-dihydro-5H-cyclopenta [b]pyridin-4-yl)carbamoyl)-1H-pyrazole-3-sulfonimidamide], the IC50 under setting [6] was 8 to 40 nM.
